# Publication PMC4987652 (Scientific Reports, 2016)
# pIC50, pKd: −log10 of the molar value. “Also recorded” adds a separate entry of the source.
# Columns and labels:
# human MOR-GFP = target: T1, human MOR-GFP (Homo sapiens, UniProt P35372); format: cell-based
# T1 construct: Human MOR cDNAs (NM_000914) with or without a stop codon were amplified from the Flexi ORF clone; expressed in transfected cells
# human MOR [1] = target: T2, human MOR (Homo sapiens, UniProt P35372); format: cell-based; design: Human MOR cDNAs (NM_000914) with or without a stop codon were amplified from the Flexi ORF clone; expressed in transfected cells; pcDNA3.1(+); the cAMP line also carries pGloSensor-22F
# rat whole brain [2] = details: read-out: Kd of radioligand, rat brain; assay condition of the binding assay; ref MDS Pharma Services; cited from earlier work
# human MOR [3] = target: T2, human MOR; experiment: biochemical; format: binding; details: for % Inhibition of [3H]-diprenorphine binding, MOR: 10 μM test compound, mean n = 2
# [4] = target: human δ opioid receptor (DOR) (Homo sapiens, UniProt P41143); experiment: Receptor binding assay, primary screening, [3H]-naltrindole, DOR; details: 10 μM test compound, mean n = 2
# human KOR = human KOR (Homo sapiens, UniProt P41145); experiment: Receptor binding assay, primary screening, [3H]-diprenorphine, KOR; details: 10 μM test compound, mean n = 2
# [5] = target: human nociception receptor (NOP) (Homo sapiens, UniProt P41146); experiment: Receptor binding assay, primary screening, [3H]-nociceptin, NOP; details: 10 μM test compound, mean n = 2
# rat whole brain [6] = experiment: Receptor binding assay, primary screening, [3H]-naloxone, rat whole brain; details: 10 μM test compound, mean n = 2
# [7] = Rat pharmacokinetic study of GJG, plasma LC/MS/MS; format: in vivo; details: GJG 1 g/kg oral, 1 h after administration
# Procedure: A pharmacokinetic study of GJG was performed to identify the bioavailable molecules in PAT. GJG (1 g/kg) was orally administered to rats and blood samples were collected 1 h after administration. Then, representative components of PAT in the collected blood samples were measured by LC/MS/MS. […] Therefore, we further investigated whether ignavine and benzoylmesaconine affect the opioid system.
# Male Sprague-Dawley rats (7 weeks, Japan Clea Inc., Tokyo, Japan) were fasted for more than 16 hours with access to water. At 1 h after oral administration of GJG (1.0 g/10 mL/kg, n = 5), blood samples were collected with a heparin-coated syringe and centrifuged at 1,500 × g for 15 minutes at 4 °C. The plasma samples were stored at −80 °C until use.
# Plasma samples were pretreated by solid-phase extraction (Oasis® MCX μ Elution Plate, 30 μm; Waters Corporation, Milford, MA, USA) and injected into the LC/MS/MS system for analysis. Components of GJG in plasma were measured by a QTRAP®5500 system (AB SCIEX, Framingham, MA, USA) equipped with an Agilent 1260 HPLC system (binary pump, online degasser, auto plate-sampler and column oven; Agilent Technologies, Santa Clara, CA, USA). The lower limits for quantification were 0.01 ng/mL for ignavine; 0.002 ng/mL for benzoylaconine; 0.001 ng/mL for benzoylmesaconine, benzoylhypaconine and 14-anisoylaconine.
# normal mice [8] = experiment: Tail-flick test; format: in vivo
# Procedure: (§1) Analgesic activity of ignavine was investigated by the tail-flick (Fig. 6A) and tail-pressure tests in normal mice (Fig. 6B). […] Maximum activity was shown at a dose of 0.1 mg/kg and analgesic activity was attenuated at higher doses. These dose-dependent relationships were similar to the results of in vitro assays.
# (§2) Antinociceptive responses were evaluated by the tail-flick test (Tail flick unit; Ugo Basile, Comerio, Italy) and the tail-pressure test (Pressure analgesimeter; Ugo Basile). The latency (sec) or weight (g) at which mice struggled or withdrew was considered the nociceptive threshold.
# normal mice [9] = experiment: Tail-pressure test; format: in vivo
# Procedure: as §1, §2
# [10] = design: method as in PMID 7116516; details: acetic acid-induced writhing and carrageenan paw edema test; cited from earlier work
# human MOR [11] = target: T2, human MOR; experiment: biochemical; format: binding; design: Human MOR cDNAs (NM_000914) with or without a stop codon were amplified from the Flexi ORF clone; expressed in transfected cells; pcDNA3.1(+); the cAMP line also carries pGloSensor-22F
# [12] = target: human μ opioid receptor (MOR) (human) (UniProt P35372)
# [13] = intra-peritoneal administration, area under the curve
# [14] = intra-peritoneal, attenuated at higher doses
# T1 sequence (P35372 whole entry): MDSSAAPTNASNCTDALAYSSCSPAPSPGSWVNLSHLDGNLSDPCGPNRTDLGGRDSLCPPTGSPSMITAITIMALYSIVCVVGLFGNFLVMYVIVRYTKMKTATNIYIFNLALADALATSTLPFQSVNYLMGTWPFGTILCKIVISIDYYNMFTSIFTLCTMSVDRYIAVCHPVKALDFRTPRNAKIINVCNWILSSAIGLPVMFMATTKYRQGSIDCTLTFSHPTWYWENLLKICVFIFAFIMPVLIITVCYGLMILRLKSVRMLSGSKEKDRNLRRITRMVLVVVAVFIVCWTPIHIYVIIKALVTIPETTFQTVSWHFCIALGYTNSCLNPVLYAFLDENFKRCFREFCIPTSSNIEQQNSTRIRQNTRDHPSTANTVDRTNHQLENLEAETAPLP
# T2 sequence (P35372 whole entry): as above
# Sequence of human KOR (P41145 whole entry): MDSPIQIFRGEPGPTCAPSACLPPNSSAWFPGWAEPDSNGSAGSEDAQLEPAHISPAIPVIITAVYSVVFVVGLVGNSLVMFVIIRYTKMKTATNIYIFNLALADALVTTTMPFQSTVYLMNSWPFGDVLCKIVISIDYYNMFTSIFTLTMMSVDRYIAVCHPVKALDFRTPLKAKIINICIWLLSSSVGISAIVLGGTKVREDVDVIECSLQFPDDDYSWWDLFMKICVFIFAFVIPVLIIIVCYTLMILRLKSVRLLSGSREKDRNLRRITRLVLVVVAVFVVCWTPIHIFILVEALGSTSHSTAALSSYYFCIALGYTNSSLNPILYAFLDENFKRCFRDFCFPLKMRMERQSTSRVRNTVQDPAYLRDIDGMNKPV
# Sequence of human nociception receptor (NOP) (P41146 whole entry): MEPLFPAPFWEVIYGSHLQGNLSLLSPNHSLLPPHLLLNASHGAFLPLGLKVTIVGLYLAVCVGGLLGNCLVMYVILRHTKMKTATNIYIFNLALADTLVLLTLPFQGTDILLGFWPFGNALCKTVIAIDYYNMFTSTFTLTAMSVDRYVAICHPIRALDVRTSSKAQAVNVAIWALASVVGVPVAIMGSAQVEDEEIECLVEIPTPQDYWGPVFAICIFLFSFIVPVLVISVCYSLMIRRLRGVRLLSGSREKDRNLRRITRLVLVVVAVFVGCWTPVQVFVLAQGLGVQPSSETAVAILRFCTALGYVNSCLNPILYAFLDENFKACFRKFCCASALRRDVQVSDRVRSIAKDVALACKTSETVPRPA
# Sequence of human δ opioid receptor (DOR) (P41143 whole entry): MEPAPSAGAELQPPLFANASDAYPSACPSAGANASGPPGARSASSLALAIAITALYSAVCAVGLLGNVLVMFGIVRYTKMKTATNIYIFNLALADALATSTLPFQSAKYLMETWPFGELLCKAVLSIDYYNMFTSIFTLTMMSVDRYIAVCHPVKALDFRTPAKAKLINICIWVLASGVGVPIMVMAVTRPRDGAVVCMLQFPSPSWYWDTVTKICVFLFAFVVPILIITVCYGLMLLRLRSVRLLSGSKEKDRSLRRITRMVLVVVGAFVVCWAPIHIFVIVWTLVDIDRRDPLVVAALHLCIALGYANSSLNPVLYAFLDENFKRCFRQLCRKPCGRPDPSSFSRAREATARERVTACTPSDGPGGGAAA
# Sequence of human μ opioid receptor (MOR) (human) (P35372 whole entry): as the sequence (P35372 whole entry) above
molecule,measurement,setting,value
"C[C@@H](NC(=O)[C@@H](N)Cc1ccc(O)cc1)C(=O)NCC(=O)N(C)[C@@H](Cc1ccccc1)C(=O)NCCO [DAMGO, D-Ala(2)-N-Me-Phe(4)-Gly-ol(5)-enkephalin, reference compound]",MOR internalization (vesicle formation),human MOR-GFP,vesicles were observed in the intracellular space; also recorded: induced vesicle formation
same,Effect on forskolin-induced increase of intracellular cAMP,human MOR [1],inhibited the increase of intracellular cAMP
C=CCN1CC[C@]23c4c5ccc(O)c4O[C@H]2C(=O)CC[C@@]3(O)[C@H]1C5 [naloxone],pKd,rat whole brain [2],8.85
COC[C@]12CN(C)C3[C@@H]4[C@H](OC)[C@H]1[C@@]3([C@@H](OC)C[C@H]2O)[C@@H]1C[C@@]2(O)[C@H](OC(=O)c3ccccc3)[C@@H]1[C@]4(O)[C@@H](O)[C@@H]2OC [benzoylmesaconine],"% Inhibition of [3H]-diprenorphine binding, MOR",human MOR [3],2%
same,"% Inhibition of radioligand binding, DOR",[4],-8%
same,"% Inhibition of [3H]-diprenorphine binding, KOR",human KOR; 10 µM,Neither ignavine nor benzoylmesaconine inhibited
same,"% Inhibition of [3H]-diprenorphine binding, KOR","human KOR; listed as Benzoylmesaconine, 10 µM",3%
same,"% Inhibition of radioligand binding, NOP",[5],-9%
same,"% Inhibition of [3H]-naloxone binding, rat brain",rat whole brain [6],17%
same,Plasma concentration after oral GJG,[7],higher concentrations
C=C1C2CC3C4N5CC6(C)C(O)C(OC(=O)c7ccccc7)CC47C6C5CC3(C1O)C7(O)C2 (stereo not shown) [ignavine],"% Inhibition of [3H]-diprenorphine binding, MOR",human MOR [3],almost completely inhibited
same,inhibition at 10 µM,"human MOR [3]; read-out: % Inhibition of [3H]-diprenorphine binding, MOR",90%
same,inhibition at 10 µM,"[4]; read-out: % Inhibition of radioligand binding, DOR",-5%
same,"% Inhibition of [3H]-diprenorphine binding, KOR",human KOR,Neither ignavine nor benzoylmesaconine inhibited
same,inhibition at 10 µM,human KOR,0%
same,inhibition at 10 µM,"[5]; read-out: % Inhibition of radioligand binding, NOP",-7%
same,"% Inhibition of [3H]-naloxone binding, rat brain",rat whole brain [6]; 10 µM,also inhibited its binding
same,"% Inhibition of [3H]-naloxone binding, rat brain","rat whole brain [6]; listed as Ignavine, 10 µM",92%
same,"MOR internalization, ignavine alone",human MOR-GFP,did not affect receptor internalization
same,"Analgesic activity, tail-flick test",normal mice [8]; [13],inhibited pain
same,"Dose of maximum analgesic activity, tail-flick test",normal mice [8]; [14],0.1 mg/kg
same,"Analgesic activity, tail-pressure test",normal mice [9]; [13],inhibited pain
same,"Dose of maximum analgesic activity, tail-pressure test",normal mice [9]; [14],0.1 mg/kg
same,Plasma concentration after oral GJG,[7],highest concentration among the measured components; also recorded: higher concentrations
same,Anti-inflammatory activity and adverse effects,[10],anti-inflammatory activity
same,pIC50,human MOR [11],5.70
same,"Effect on intracellular cAMP levels, ignavine alone",human MOR [1],no effect
same,Fold increase of EC50 of DAMGO,human MOR [1],3.3 fold
same,"Modulation of DAMGO activity in cAMP assay, early period",human MOR [1],enhancing the activity of DAMGO
same,"Modulation of DAMGO activity in cAMP assay, later period",human MOR [1],inhibiting DAMGO activity
same,Modulation of endomorphin-1 (EMP-1) activity in cAMP assay,human MOR [1],positive modulation
same,Modulation of endomorphin-1 activity in cAMP assay,human MOR [1],inhibited them
same,Modulation of morphine (MRP) activity in cAMP assay,human MOR [1],positive modulation
same,Modulation of morphine activity in cAMP assay,human MOR [1],inhibited them
same,Response in cAMP assay in the presence of naloxone,human MOR [1],did not show a clear response
D-Ala(2)-N-Me-Phe(4)-Gly-ol(5)-enkephalin (peptide),"EC50 of DAMGO in the intracellular cAMP assay, fold change with 1 μM ignavine against DMSO, 7.5 min after forskolin",[12],3.8 fold
same,"EC50 of DAMGO in the intracellular cAMP assay, fold change with 10 μM ignavine against DMSO, 23.5 min after forskolin",[12],3.3 fold
